# Results published in ChEMBL document CHEMBL3301472, “MMV Malaria Box HIV and cytotoxicity screening”.
# Legend:
# Format in all cases: toxicity, cell-based
# [1] = MMV: MTT Cytotoxicity Assay Day 3 pi, U87-CD4-CCR5 cells, % cell death @ 5mM compound; settings: human, u87-cd4-ccr5, 5000 µM
# [2] = MMV: MTT Cytotoxicity Assay Day 3 pi, U87-CD4-CXCR4 cells, % cell death @ 5mM compound; settings: human, u87-cd4-cxcr4, 5000 µM
# [3] = MMV: MTT Cytotoxicity Assay Day 7 pi of Assay #6 (compound washed out Day 1 pi), U87-CD4-CCR5 cells, % cell death @ 5mM compound; settings: human, u87-cd4-ccr5, 5000 µM
# [4] = MMV: MTT Cytotoxicity Assay Day 7 pi of Assay #7 (compound washed out Day 1 pi), U87-CD4-CXCR4 cells, % cell death @ 5mM compound; settings: human, u87-cd4-cxcr4, 5000 µM
# [5] = MMV: MTT Cytotoxicity Assay Day 7 pi of Assay #10 (NO washout), U87-CD4-CCR5 cells, % cell death @ 5mM compound; settings: human, u87-cd4-ccr5, 5000 µM
# [6] = MMV: MTT Cytotoxicity Assay Day 7 pi of Assay #11 (NO washout), U87-CD4-CXCR4 cells, % cell death @ 5mM compound; settings: human, u87-cd4-cxcr4, 5000 µM
structure (smiles),measurement,setting,value
CCN(CC)CCCNc1nc(-c2ccc(Cl)cc2)nc2ccccc12,% Cell Death,[1],-18
same,% Cell Death,[2],13
same,% Cell Death,[3],13
same,% Cell Death,[4],18
same,% Cell Death,[5],18
same,% Cell Death,[6],-10
O=c1cc(NC2CCN(CCCc3ccccc3)CC2)c2cc(Cl)ccc2o1,% Cell Death,[1],16
same,% Cell Death,[2],19
same,% Cell Death,[3],-6
same,% Cell Death,[4],37
same,% Cell Death,[5],31
same,% Cell Death,[6],-41
CC(C)(C)CC(C)(C)NCC(O)COc1ccc(Cl)cc1Cl (centres undefined),% Cell Death,[1],-7
same,% Cell Death,[2],39
same,% Cell Death,[3],-12
same,% Cell Death,[4],-31
same,% Cell Death,[5],-1
same,% Cell Death,[6],8
CCOc1ccc(CN2CCN(CC(O)COc3ccc(OCC(O)CN4CCN(Cc5ccc(OCC)cc5)CC4)cc3)CC2)cc1 (centres undefined),% Cell Death,[1],-5
same,% Cell Death,[2],50
same,% Cell Death,[3],65
same,% Cell Death,[4],21
same,% Cell Death,[5],115
same,% Cell Death,[6],-7
FC(F)(F)c1cccc(Nc2nc3ccccc3nc2Nc2cccc(C(F)(F)F)c2)c1,% Cell Death,[1],-15
same,% Cell Death,[2],15
same,% Cell Death,[3],15
same,% Cell Death,[4],3
same,% Cell Death,[5],25
same,% Cell Death,[6],-12
COc1ccc(-n2ccnc2SCC(=O)Nc2cc(C)ccc2C)c(OC)c1,% Cell Death,[1],18
same,% Cell Death,[2],54
same,% Cell Death,[3],32
same,% Cell Death,[4],-16
same,% Cell Death,[5],71
same,% Cell Death,[6],78
CC(Oc1ccc(NC(=O)c2cccs2)cc1)C(=O)c1ccc(Cl)cc1 (centres undefined),% Cell Death,[1],-10
same,% Cell Death,[2],1
same,% Cell Death,[3],40
same,% Cell Death,[4],60
same,% Cell Death,[5],2
same,% Cell Death,[6],-5
O=C(NC1CCN(Cc2ccccc2)CC1)c1cc(-c2ccncc2)nc2ccc(Cl)cc12,% Cell Death,[1],13
same,% Cell Death,[2],31
same,% Cell Death,[3],-18
same,% Cell Death,[4],8
same,% Cell Death,[5],2
same,% Cell Death,[6],58
CCC(O)c1ccc(Br)cc1NC(=O)c1cccc(Cl)c1 (centres undefined),% Cell Death,[1],-44
same,% Cell Death,[2],11
same,% Cell Death,[3],-24
same,% Cell Death,[4],28
same,% Cell Death,[5],6
same,% Cell Death,[6],-37
COc1cccc(-c2nn(C)c3sc(C(=O)NCCN4CCN(c5ccccc5F)CC4)cc23)c1,% Cell Death,[1],21
same,% Cell Death,[2],64
same,% Cell Death,[3],2
same,% Cell Death,[4],-4
same,% Cell Death,[5],33
same,% Cell Death,[6],13
COc1cccc(Nc2nc(N)c3ccccc3n2)c1.Cl,% Cell Death,[1],-31
same,% Cell Death,[2],22
same,% Cell Death,[3],13
same,% Cell Death,[4],-5
same,% Cell Death,[5],-2
same,% Cell Death,[6],-77
CCCN(CCC)CCCNC(=O)c1cc2c(-c3ccc(OC)c(OC)c3)nn(C)c2s1,% Cell Death,[1],51
same,% Cell Death,[2],9
same,% Cell Death,[3],59
same,% Cell Death,[4],-24
same,% Cell Death,[5],100
same,% Cell Death,[6],103
CN(C)CCCNCc1ccc(-c2ccc(F)c(Cl)c2)o1.Cl,% Cell Death,[1],20
same,% Cell Death,[2],27
same,% Cell Death,[3],16
same,% Cell Death,[4],-17
same,% Cell Death,[5],8
same,% Cell Death,[6],-24
COc1ccc2c(c1)OC(O)(C(F)(F)C(F)(F)F)CC2=O (centres undefined),% Cell Death,[1],42
same,% Cell Death,[2],47
same,% Cell Death,[3],37
same,% Cell Death,[4],4
same,% Cell Death,[5],62
same,% Cell Death,[6],88
Cc1cc(Nc2ccc3ccccc3c2)n2ncnc2n1,% Cell Death,[1],39
same,% Cell Death,[2],38
same,% Cell Death,[3],12
same,% Cell Death,[4],-16
same,% Cell Death,[5],-3
same,% Cell Death,[6],-43
COc1cc(CNCCc2ccc(Cl)cc2)cc(OC)c1O,% Cell Death,[1],-11
same,% Cell Death,[2],35
same,% Cell Death,[3],-15
same,% Cell Death,[4],11
same,% Cell Death,[5],18
same,% Cell Death,[6],91
CCOC(=O)c1cn(CC)c2cc(N3CCCCC3)c(F)cc2c1=O,% Cell Death,[1],106
same,% Cell Death,[2],101
same,% Cell Death,[3],99
same,% Cell Death,[4],97
same,% Cell Death,[5],115
same,% Cell Death,[6],103
Cc1ccc(-c2cc3nc4c(c(O)n3n2)CCCC4)cc1,% Cell Death,[1],70
same,% Cell Death,[2],56
same,% Cell Death,[3],24
same,% Cell Death,[4],52
same,% Cell Death,[5],113
same,% Cell Death,[6],97
COc1ccc2nc(C)cc(Nc3ccccc3O)c2c1,% Cell Death,[1],5
same,% Cell Death,[2],30
same,% Cell Death,[3],14
same,% Cell Death,[4],-12
same,% Cell Death,[5],6
same,% Cell Death,[6],-34
O=C(Nc1ccc(N2CCN(Cc3ccccc3)CC2)cc1)c1cccs1.O=C(O)C(F)(F)F,% Cell Death,[1],-2
same,% Cell Death,[2],55
same,% Cell Death,[3],4
same,% Cell Death,[4],-26
same,% Cell Death,[5],124
same,% Cell Death,[6],28
CC1CCCCN1CCCNC(=O)c1ccc2c(c1)sc1nc(-c3ccc(F)cc3)cn12 (centres undefined),% Cell Death,[1],-29
same,% Cell Death,[2],0
same,% Cell Death,[3],29
same,% Cell Death,[4],-50
same,% Cell Death,[5],-20
same,% Cell Death,[6],61
COc1cccc(C=Cc2nc(=O)c3ccccc3o2)c1OC,% Cell Death,[1],70
same,% Cell Death,[2],54
same,% Cell Death,[3],17
same,% Cell Death,[4],-19
same,% Cell Death,[5],51
same,% Cell Death,[6],31
Cc1ccc(Cl)cc1N1CCN(CCCNC(=O)C2CCN(c3nc4ccccc4[nH]3)CC2)CC1,% Cell Death,[1],86
same,% Cell Death,[2],6
same,% Cell Death,[3],31
same,% Cell Death,[4],-32
same,% Cell Death,[5],91
same,% Cell Death,[6],57
CCN1CCCC1CNc1[nH]cnc2c3cc(Cl)ccc3nc1-2 (centres undefined),% Cell Death,[1],45
same,% Cell Death,[2],23
same,% Cell Death,[3],26
same,% Cell Death,[4],-7
same,% Cell Death,[5],40
same,% Cell Death,[6],14
Cc1cc(NC(=O)c2cccc(C(F)(F)F)c2)n(-c2nc(-c3ccc4c(c3)OCO4)cs2)n1,% Cell Death,[1],40
same,% Cell Death,[2],17
same,% Cell Death,[3],16
same,% Cell Death,[4],-18
same,% Cell Death,[5],9
same,% Cell Death,[6],-57
CCOC(=O)C1=CN(C)C=C(C(=O)OCC)C1c1cc(Br)c(OCC)c(OC)c1,% Cell Death,[1],80
same,% Cell Death,[2],32
same,% Cell Death,[3],37
same,% Cell Death,[4],99
same,% Cell Death,[5],103
same,% Cell Death,[6],6
CCCc1c(CC)c(=N)c2ccccc2n1C,% Cell Death,[1],33
same,% Cell Death,[2],21
same,% Cell Death,[3],-10
same,% Cell Death,[4],-9
same,% Cell Death,[5],-7
same,% Cell Death,[6],-23
COc1ccccc1N1C(=N)SC(=Cc2ccc(OCc3ccccc3F)cc2)C1=O,% Cell Death,[1],17
same,% Cell Death,[2],24
same,% Cell Death,[3],23
same,% Cell Death,[4],7
same,% Cell Death,[5],30
same,% Cell Death,[6],24
CCN(Cc1ccccc1)C1CCN(Cc2cc(Br)ccc2O)CC1.O=C(O)C(=O)O,% Cell Death,[1],-5
same,% Cell Death,[2],27
same,% Cell Death,[3],6
same,% Cell Death,[4],0
same,% Cell Death,[5],20
same,% Cell Death,[6],-25
